Results as given in patent publication US5565440A, “Methane diphosphonic acid derivative, its production process and its pharmaceutical applications” (Toray Industries, Inc., priority 1992, dated 1996).

Tested on: adjuvant arthritis
Assay: Adjuvant Arthritis Test
Type: in vivo, Lewis female rats
Conditions: 8th to 21st day; for Swelling inhibition rate with respect to control group, 14th day, Left / Swelling inhibition rate with respect to control group, 21st day, Left: left hind limb (adjuvant-injected); for Swelling inhibition rate with respect to control group, 14th day, Right / Swelling inhibition rate with respect to control group, 21st day, Right: right hind limb; for Bone destruction inhibition rate with respect to control group: soft X-ray score, 22nd day

| SMILES | Swelling inhibition rate with respect to control group, 14th day, Left (3 mg/kg s.c. daily) [%] | Swelling inhibition rate with respect to control group, 21st day, Left (3 mg/kg s.c. daily) [%] | Swelling inhibition rate with respect to control group, 14th day, Right (3 mg/kg s.c. daily) [%] | Swelling inhibition rate with respect to control group, 21st day, Right (3 mg/kg s.c. daily) [%] | Bone destruction inhibition rate with respect to control group (3 mg/kg s.c. daily) [%] | Swelling inhibition rate with respect to control group, 14th day, Left (20 mg/kg s.c. daily) [%] | Swelling inhibition rate with respect to control group, 21st day, Left (20 mg/kg s.c. daily) [%] | Swelling inhibition rate with respect to control group, 14th day, Right (20 mg/kg s.c. daily) [%] | Swelling inhibition rate with respect to control group, 21st day, Right (20 mg/kg s.c. daily) [%] | Bone destruction inhibition rate with respect to control group (20 mg/kg s.c. daily) [%] |
| --- | --- | --- | --- | --- | --- | --- | --- | --- | --- | --- |
| O=P(O)(O)C(O)(CC1CCSc2ccccc21)P(=O)(O)O (centres unmarked) [Example 6, Monosodium 2-(4-thiochromanyl)-1-hydroxyethane-1,1-diphosphonate] | 26.1 | 62.0 | 27.2 | 35.9 | 38.5 | – | – | – | – | – |
| COc1cccc2c1SCCC2CC(O)(P(=O)(O)O)P(=O)(O)O (centres unmarked) [Example 12] | 35.4 | 60.1 | 0.2 | 24.2 | 26.2 | – | – | – | – | – |
| CC1(C)CC(CC(O)(P(=O)(O)O)P(=O)(O)O)c2ccccc2S1 (centres unmarked) [Example 2, Monosodium 2-[4-(2,2-dimethylthiochromanyl)]-1-hydroxyethane-1,1-diphosphonate] | – | – | – | – | – | 59.6 | 75.3 | 8.0 | 16.5 | 80.4 |
| CSc1cccc2c1SCCC2CC(O)(P(=O)(O)O)P(=O)(O)O (centres unmarked) [Example 14, Disodium 2-[4-(8-methylthiothiochromanyl)]-1-hydroxyethane-1,1-diphosphonate] | 53.9 | 80.0 | 2.9 | 31.0 | 46.9 | – | – | – | – | – |
| O=P(O)(O)C(O)(CC1CCSc2c(Cl)cccc21)P(=O)(O)O (centres unmarked) [Example 8] | 52.6 | 84.1 | 0.1 | 37.5 | 52.3 | – | – | – | – | – |
| O=P(O)(O)C(O)(CC1CCSc2ccc(Cl)cc21)P(=O)(O)O (centres unmarked) [Example 4, Monosodium 2-[4-(6-chlorothiochromanyl)]-1-hydroxyethane-1,1-diphosphonate] | 55.5 | 93.0 | 32.4 | 37.7 | 52.7 | – | – | – | – | – |
| CCc1cccc2c1SCCC2CC(O)(P(=O)(O)O)P(=O)(O)O (centres unmarked) [Example 10, Disodium 2-[4-(8-ethylthiochromanyl)]-1-hydroxyethane-1,1-diphosphonate] | 38.1 | 62.5 | 19.5 | 33.9 | 23.9 | – | – | – | – | – |
